The values below come from ChEMBL document CHEMBL1125670, “Synthesis and evaluation of novel ether lipid nucleoside conjugates for anti-HIV-1 activity” (J Med Chem, 1991).

As usually defined, the IC50 is the concentration that inhibits the measured activity by half. What is called inhibition is the share of the control response that was lost under treatment.

One test has as its system CEM-SS. The test is described as follows: Concentration of compound required to 50% growth inhibition of CEM-SS cells.
For test [1], the system named is Human immunodeficiency virus 1. The test is described as follows: Anti-HIV-1 activity against syncytial plaque formation. The format is functional, organism-based.
Test [2] relates to Human immunodeficiency virus 1. Description: Anti-HIV-1 activity against syncytial plaque formation at a conc. of 0.25 uM. The format is functional.
The test system of test [3] is U1. Description: (§1) inhibition of p24 core antigen synthesis in U1 cells. The format is functional, Homo sapiens. Further details: scale not given: the % may be the effect or the level left.
In test [4] the test system is Human immunodeficiency virus 1. Description: Anti-HIV-1 activity against syncytial plaque formation at a conc. of 0.06 uM. The format is functional.
Test [5] concerns U1. The test is described as follows: (§2) inhibition of infectious virus production in U1 cells. The format is functional, Homo sapiens. Further details: scale not given: the % may be the effect or the level left.
Test [6] relates to Human immunodeficiency virus 1. The test is described as follows: Anti-HIV-1 activity against syncytial plaque formation at a conc. of 0.03 uM. The format is functional.
For test [7], the system named is Human immunodeficiency virus 1. The test is described as follows: Anti-HIV-1 activity against syncytial plaque formation at a conc. of 0.5 uM. The format is functional.
The test system of test [8] is Human immunodeficiency virus 1. Description: Anti-HIV-1 activity against syncytial plaque formation at a conc. of 0.12 uM. The format is functional.
In test [9] the test system is Human immunodeficiency virus 1. The test is described as follows: Anti-HIV-1 activity against syncytial plaque formation at a conc. of 1 uM. The format is functional.
Test [10] has as its system U1. The test is described as follows: (§3) inhibition of HIV-1 induced RT production in U1 cells. The format is functional, Homo sapiens. Further details: scale not given: the % may be the effect or the level left.
In test [11] the test system is Human immunodeficiency virus 1. Description: Anti-HIV-1 activity against syncytial plaque formation at a conc. of 0.003 uM. The format is functional.
Test [12] has as its system Human immunodeficiency virus 1. Description: Anti-HIV-1 activity against syncytial plaque formation at a conc. of 0.0003 uM. The format is functional.
The subject of test [13] is U1. Described as §3. The format is functional, Homo sapiens.
In test [14] the test system is U1. The description is as §2. The format is functional, Homo sapiens.
The test system of test [15] is U1. The test is described as §1. The format is functional, Homo sapiens.
The test system of test [16] is Human immunodeficiency virus 1. The test is described as follows: Anti-HIV-1 activity against syncytial plaque formation at a conc. of 0.006 uM. The format is functional.
Test [17] concerns Human immunodeficiency virus 1. Description: Anti-HIV-1 activity against syncytial plaque formation at a conc. of 0.012 uM. The format is functional.
Test [18] relates to Human immunodeficiency virus 1. The test is described as follows: Anti-HIV-1 activity against syncytial plaque formation at a conc. of 0.0015 uM. The format is functional.
In test [19] the test system is Human immunodeficiency virus 1. The test is described as follows: Anti-HIV-1 activity against syncytial plaque formation at a conc. of 0.0007 uM. The format is functional.

Structures are written as SMILES. A value given as a limit tells only on which side of the number the result lay.

Regarding `CCCCCCCCCCCCCCCCCC(=O)NCC(COP(=O)(O)O)OCC` (stereo not given), the IC50 (in the test with CEM-SS; in test [1]) was over 100 µM each time.

With `CCCCCCCCCCCCCCCCCC(=O)[N-]CC(COP(=O)([O-])OCC[N+](C)(C)C)OCC.[Na+]` (stereo not given), testing at 0.25 µM in test [2] gave an inhibition of 60%. The results for the Control in the test with U1 [3], in the test with U1 [5] and in the test with U1 [10] were 74%, 33% and 147%, respectively. For the same compound, in test [4], testing at 0.06 µM gave an inhibition of 34%. In addition, the IC50 was 14.3 µM with CEM-SS and 0.11 µM in test [1]. The compound also had an inhibition at 0.03 µM in test [6] of 14%. The compound further gave an inhibition at 0.5 µM in test [7] of 74%. Further, in [8], the inhibition at 0.12 µM came out at 49%. Also, 1 µM produced 89% inhibition in test [9].

For the compound `CCCCCCCCCCCCCCCCSCC(COP(=O)([O-])OCC[N+](C)(C)C)OCC` (stereo not given), the 50% inhibitory concentration (IC50) in the test on CEM-SS worked out at 4.1 µM; in [1], 0.6 µM.

In the case of `CCCCCCCCCCCCCCCCCC(=O)NCC(CO)OCC` (stereo not given), the IC50 (with CEM-SS; in [1]) was over 100 µM throughout.

For `CCCCCCCCCCCCCCCCCC(=O)NCC(COP(=O)([O-])OC[C@H]1O[C@@H](n2cc(C)c(=O)[nH]c2=O)C[C@@H]1N=[N+]=[N-])OCC.[Na+]` (stereo not given in full), the results for the Control in the test with U1 [3], with U1 [5] and in the test with U1 [10] were 84%, 67% and 121%, respectively. Besides, the half-inhibitory concentration (IC50) with CEM-SS came out at 53.8 µM; in test [1], 0.03 µM.

As for `CCCCCCCCCCCCCCCCOCC(COP(=O)(O)OC[C@H]1O[C@@H](n2cc(C)c(=O)[nH]c2=O)C[C@@H]1N=[N+]=[N-])OCC` (stereo not given in full), the concentration for half-maximal inhibition (IC50) amounted to 35 µM in the test with CEM-SS and 0.03 µM in test [1].

With `CCCCCCCCCCCCCCCCCC(=O)NCC(COP(=O)(O)OC[C@@H]1CC[C@H](n2cnc3c(=O)[nH]cnc32)O1)OCC` (stereo not given in full), the values for the IC50 (in the test on CEM-SS; in [1]) were over 100 µM and 1.56 µM, respectively.

On to `O=c1[nH]cnc2c1ncn2[C@H]1CC[C@@H](CO)O1` [DIDANOSINE], for which the values for the half-inhibitory concentration (IC50) (with CEM-SS; in [1]) were over 100 µM and 1.7 µM, respectively.

`CCCCCCCCCCCCCCCCCCOCC(COP(=O)([O-])OCC[N+](C)(C)C)OC` (stereo not given) [EDELFOSINE]: the values for the IC50 (with CEM-SS; in test [1]) were 4 µM and 1.4 µM, respectively.

As to `Cc1cn([C@H]2C[C@H](N=[N+]=[N-])[C@@H](CO)O2)c(=O)[nH]c1=O` [ZIDOVUDINE], the inhibition at 0.003 µM in [11] came to 79%. This compound also showed an inhibition at 0.0003 µM in test [12] of 18%. The results for the Of control in the test on U1 [13], with U1 [14] and with U1 [15] were 90%, 87% and 101%, respectively. The compound further returned a half-inhibitory concentration (IC50) with CEM-SS of 5.1 µM. In addition, in [16], the inhibition at 0.006 µM came out at 87%. Besides, in [17], the inhibition at 0.012 µM was determined as 93%. This compound had an inhibition at 0.0015 µM in test [18] of 70%. The compound further had an inhibition at 0.0007 µM in test [19] of 53%.
